biological target: T1, GPR119 (Homo sapiens, UniProt Q8TDV5); experiment: Stimulation of cAMP in CHO cells stably expressing GPR119 (HTRF/FRET cAMP immunoassay); type: cell-based; conditions: 3 μM compound, 30 min, relative to maximal activity (=100%) of reference agonist 4-(4-{4-Nitro-3-[4-(pyridin-2-ylsulfanyl)-piperidin-1-yl]-phenoxy}-phenyl)-butan-2-one or 4-[6-(4-Methanesulfonyl-phenyl-amino)-5-nitro-pyrimidin-4-yl-oxy]-piperidine-1-carboxylic acid tert-butyl ester
T1 construct: expressed in transfected cells
T1 sequence (Q8TDV5 1-335): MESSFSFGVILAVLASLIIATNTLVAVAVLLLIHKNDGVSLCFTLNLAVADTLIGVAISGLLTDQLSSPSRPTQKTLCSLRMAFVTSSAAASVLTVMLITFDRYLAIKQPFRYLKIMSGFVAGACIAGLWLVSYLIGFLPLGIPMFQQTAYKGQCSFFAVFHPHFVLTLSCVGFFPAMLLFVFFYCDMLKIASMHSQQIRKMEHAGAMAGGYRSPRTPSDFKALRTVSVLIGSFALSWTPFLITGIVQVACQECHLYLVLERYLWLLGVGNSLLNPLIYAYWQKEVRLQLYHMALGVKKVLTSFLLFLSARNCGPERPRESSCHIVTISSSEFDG
Protocol: This assay was developed using a stable cell line expressing GPR119, generated as follows. GPR119 (co-pending, co-owned patent application U.S. Ser. No. 11/964,461) was cloned into Gateway pDEST 40vector (Invitrogen), using the Gateway cloning system (invitrogen) according to the manufacturer's instructions. A stable cell line was generated by transfecting a 10 cm plate of CHO cells (source) with 8 μg of this construct using Transit-CHO transfection kit (Mirus). CHO cells were plated the day prior to transfection at a density of 3,000,000 cells/plate. Clones were selected using the antibiotic G418 at 500 μg/mL. 23 clones were picked and assayed for the expression of the receptor by measuring changes in intracellular cAMP levels in response to a known GPR119 agonist.
To measure cAMP activity in response to GPR119 agonist, the clones were plated in 96 well plates at 17500 cells per well. On the day after plating, cells were incubated with the GPR119 agonist at 10 μM for 30 minutes in Ham's F12 Media (Gibco) with 0.04% DMSO. cAMP was measured using the cAMP dynamic kit from C is Bio (Bedford, Mass.) according to the manufacturer's instructions. Briefly, cells were lysed, and cAMP levels determined by competitive immunoassay using D2 labeled cAMP, and europium cryptate tagged anti cAMP antibody. When in close proximity, the D2 and europium cryptate undergo fluorescence resonance energy transfer (FRET), which is measured as a fluorescence ratio (665 nm/620 nm). Unlabelled cAMP in the cell lysate competed with the D2 labeled cAMP for the europium crypate labeled antibody. The resulting decrease in FRET signal corresponded to intracellular cAMP levels. Fluorescence was read on a BMG Labtech PHERAstar, software version 1.50.
The clone with the greatest response to IC-GPCR2 agonist was selected for the screening assay.
Compounds were dissolved in 100% DMSO to a concentration of […] to provide stock solutions. To determine activity against GPR119, compounds were incubated with GPR119 stably expressing cells (described above), at 6-8 concentrations ranging from 0.00003 to 10 micromolar, in 96 well plates, in 50 μl of Ham's F12 media for 30 minutes. Cells were plated at 17500 cells per well 1 day before running the assay. All compounds were also screened against the parental CHO cells. cAMP was measured using the cAMP dynamic kit from C is Bio (Bedford, Mass.), according to the manufacturer's instructions. Briefly, cells were lysed and cAMP levels determined by competitive immunoassay using D2 labeled cAMP, and europium cryptate tagged anti cAMP antibody. When in close proximity, the D2 and europium cryptate undergo fluorescence resonance energy transfer (FRET), which is measured as a fluorescence ratio (665 nm/620 nm). Unlabelled cAMP in the cell lysate competed with the D2 labeled cAMP for the europium crypate labeled antibody. The resulting decrease in FRET signal corresponded to intracellular cAMP levels.
To determine percent activity for a tested compound, the FRET signal value obtained at a particular concentration are compared to the Maximal FRET signal value obtained for 4-(4-{4-Nitro-3-[4-(pyridin-2-ylsulfanyl)-piperidin-1-yl]-phenoxy}-phenyl)-butan-2-one (WO 2004/076,413) or 4-[6-(4-Methanesulfonyl-phenyl-amino)-5-nitro-pyrimidin-4-yl-oxy]-piperidine-1-carboxylic acid tert-butyl ester (US 2005/070,562). The maximal activity of 4-(4-{4-Nitro-3-[4-(pyridin-2-ylsulfanyl)-piperidin-1-yl]-phenoxy}-phenyl)-butan-2-one or 4-[6-(4-Methanesulfonyl-phenyl-amino)-5-nitro-pyrimidin-4-yl-oxy]-piperidine-1-carboxylic acid tert-butyl ester is designated as 100% activity. Typically, the concentration 4-(4-{4-Nitro-3-[4-(pyridin-2-ylsulfanyl)-piperidin-1-yl]-phenoxy}-phenyl)-butan-2-one or 4-[6-(4-Methanesulfonyl-phenyl-amino)-5-nitro-pyrimidin-4-yl-oxy]-piperidine-1-carboxylic acid tert-butyl ester was approximately 10 μM. […]

Row | % Activity at 3 uM [%] | SMILES
1 | 59.01 | CC(C)(C)OC(=O)N1CCC(n2ncc3c(Oc4ccc(S(C)(=O)=O)cc4)ncnc32)CC1 [Example 1, tert-butyl 4-(4-(4-(methylsulfonyl)phenoxy)-1H-pyrazolo[3,4-d]pyrimidin-1-yl)piperidine-1-carboxylate]
2 | 69.8 | COc1ccc(Oc2ncnc3c2cnn3C2CCN(C(=O)OC(C)(C)C)CC2)cc1 [Example 2, tert-butyl 4-(4-(4-methoxyphenoxy)-1H-pyrazolo[3,4-d]pyrimidin-1-yl)piperidine-1-carboxylate]
3 | 12.73 | CC(C)(C)OC(=O)N1CCC(n2ncc3c(Oc4ccc(Oc5ccc(C(F)(F)F)cc5)cc4)ncnc32)CC1 [Example 3, tert-butyl 4-(4-(4-(4-(trifluoromethyl)phenoxy)phenoxy)-1H-pyrazolo[3,4-d]pyrimidin-1-yl)piperidine-1-carboxylate]
4 | 69.49 | CC(C)(C)OC(=O)N1CCC(n2ncc3c(Oc4ccc(-n5ccnc5)cc4)ncnc32)CC1 [Example 4, tert-butyl 4-(4-(4-(1H-imidazol-1-yl)phenoxy)-1H-pyrazolo[3,4-d]pyrimidin-1-yl)piperidine-1-carboxylate]
5 | 60.11 | CC(C)(C)OC(=O)N1CCC(n2ncc3c(Sc4ccc(S(C)(=O)=O)cc4)ncnc32)CC1 [Example 5, tert-butyl 4-(4-(4-(methylsulfonyl)phenylthio)-1H-pyrazolo[3,4-d]pyrimidin-1-yl)piperidine-1-carboxylate]
6 | 56.96 | CC(C)(C)OC(=O)N1CCC(n2ncc3c(Oc4ccc(Oc5ccccc5)cc4)ncnc32)CC1 [Example 6, tert-butyl 4-(4-(4-phenoxyphenoxy)-1H-pyrazolo[3,4-d]pyrimidin-1-yl)piperidine-1-carboxylate]
7 | 59.61 | CC(C)(C)OC(=O)N1CCC(Cn2ncc3c(Oc4ccc(S(C)(=O)=O)cc4)ncnc32)CC1 [Example 50, tert-butyl 4-((4-(4-(methylsulfonyl)phenoxy)-1H-pyrazolo[3,4-d]pyrimidin-1-yl)methyl)piperidine-1-carboxylate]
8 | 74.66 | CC(C)(C)OC(=O)N1CCC(Cn2ncc3c(Oc4ccc(S(C)(=O)=O)cc4)ncnc32)C1 (stereo not shown) [Example 61, tert-butyl 3-((4-(4-(methylsulfonyl)phenoxy)-1H-pyrazolo[3,4-d]pyrimidin-1-yl)methyl)pyrrolidine-1-carboxylate]
9 | 67.37 | CC(C)(C)OC(=O)N1CCC(Cn2ncc3c(Oc4ccc(-n5cncn5)cc4)ncnc32)C1 (stereo not shown) [Example 62, tert-butyl 3-((4-(4-(1H-1,2,4-triazol-1-yl)phenoxy)-1H-pyrazolo[3,4-d]pyrimidin-1-yl)methyl)pyrrolidine-1-carboxylate]
10 | 51.02 | CC(C)CS(=O)(=O)N1CCC(n2ncc3c(Oc4ccc(S(C)(=O)=O)cc4)ncnc32)CC1 [Example 63, 1-(1-(isobutylsulfonyl)piperidin-4-yl)-4-(4-(methylsulfonyl)phenoxy)-1H-pyrazolo[3,4-d]pyrimidine]
11 | 2.07 | Cc1ccc(S(=O)(=O)N2CCC(n3ncc4c(Oc5ccc(S(C)(=O)=O)cc5)ncnc43)CC2)cc1 [Example 64, 4-(4-(methylsulfonyl)phenoxy)-1-(1-tosylpiperidin-4-yl)-1H-pyrazolo[3,4-d]pyrimidine]
12 | 24.15 | CS(=O)(=O)c1ccc(Oc2ncnc3c2cnn3C2CCN(S(=O)(=O)Cc3ccccc3)CC2)cc1 [Example 65, 1-(1-(benzylsulfonyl)piperidin-4-yl)-4-(4-(methylsulfonyl)phenoxy)-1H-pyrazolo[3,4-d]pyrimidine]
13 | 9.73 | CS(=O)(=O)c1ccc(Oc2ncnc3c2cnn3C2CCN(S(=O)(=O)C3CC3)CC2)cc1 [Example 66, 1-(1-(cyclopropylsulfonyl)piperidin-4-yl)-4-(4-(methylsulfonyl)phenoxy)-1H-pyrazolo[3,4-d]pyrimidine]
14 | 1.95 | CN(c1ccc(S(C)(=O)=O)cc1)c1ncnc2c1nnn2C1CCN(C(=O)OC(C)(C)C)CC1 [Example 67, tert-butyl 4-(7-(methyl(4-(methylsulfonyl)phenyl)amino)-3H-[1,2,3]triazolo[4,5-d]pyrimidin-3-yl)piperidine-1-carboxylate]
15 | 59.01 | CC(C)(C)OC(=O)N1CCC(n2nnc3c(Oc4ccc(S(C)(=O)=O)cc4)ncnc32)CC1 [Example 68, tert-butyl 4-(7-(4-(methylsulfonyl)phenoxy)-3H-[1,2,3]triazolo[4,5-d]pyrimidin-3-yl)piperidine-1-carboxylate]
16 | 48.23 | CCOC(=O)N1CCC(n2nnc3c(Oc4ccc(S(C)(=O)=O)cc4)ncnc32)CC1 [Example 69, ethyl 4-(7-(4-(methylsulfonyl)phenoxy)-3H-[1,2,3]triazolo[4,5-d]pyrimidin-3-yl)piperidine-1-carboxylate]

From patent publication US20110160222A1, “MODULATORS OF GLUCOSE HOMEOSTASIS FOR THE TREATMENT OF DIABETES AND METABOLIC DISORDERS” (Metabolex, Inc., priority 2008, published 2011)
